The text below walks through data of patent US6287840A (Axys Pharmaceuticals, Inc., priority 1999, dated 2001).

Common to all, as to format: biochemical
The test system of one test is calpain. Description: Inhibition (inactivation) of calpain, Suc-Leu-Tyr-AMC. The settings on record: values marked * (or %), pH 7.5, 5 mM CaCl2, 25° C. How it is done:
The inhibitors were tested against calpain at 1 or 2% as for the other enzymes. The reaction conditions were 50 mM Tris, pH 7.5, 5 mM CaCl2, 2.5 mM DTT, assayed at 25° C. The substrate was 100 μM Suc-Leu-Tyr-AMC.

For test [1], the target named is T1, Cathepsin B from human placenta (Homo sapiens, UniProt P07858).
T1 construct: Cathepsin B from human placenta, obtained from Sigma; purchased Sigma; host or cells: human placenta (tissue)
Kind of test: Inhibition of cathepsin B, Z-Arg-Arg-AMC fluorescence progress curves. The settings on record: for k/KI (kirr/KI): values without asterisk. Here is the method: Stock solutions of the various inhibitors (10 mM) were made in DMF; dilutions were made in the same solvent. Cathepsin B from human placenta, obtained from Sigma, was approximately 10 nM in the assay. The assay buffer contained 50 mM phosphate at pH 6.2, 2.5 mM dithiothreitol (DTT), and 2.5 mM ethylenediaminetetraacetic acid (EDTA). The substrate for cathepsin B was 50 μM Z-Arg-Arg-AMC (carbobenzyloxyarginylarginylaminomethylcoumarin). The assays were initiated at 25° C. by addition of enzyme to 2 mL of assay buffer containing the substrate and the various inhibitors (30-0.001 (μM). The increase in fluorescence at 460 nm with excitation at 380 nm was followed with time, and the assay was linear throughout the range observed. Inactivation of cathepsin B was indicated by a downward curve in the increase in fluorescence with time. In the absence of inhibitors, the enzymatic production of free AMC was linear throughout the time course of inactivation examined. Data points were collected over at least 3 half-times of inactivation, and in duplicate. The inhibition progress curves were analyzed using non-linear curve fitting software to compute the kobs values. Approximate second-order inactivation constants (kobs /[I]) were calculated for all compounds. For selected inhibitors, plots of 1/[I] vs. 1/kobs yielded the true constants kirr, KI, and kirr /KI, and were corrected for the presence of substrate by dividing KI (app.) by {1+[S]/Km }.

Another test concerns the target cruzain, from T. cruzi (Trypanosoma cruzi, UniProt P25779). Kind of test: Inhibition of cruzain, as for cathepsin L. The note with it: for k/KI (kirr/KI): values without asterisk. Here is the method:
(§1) Stock solutions of the various inhibitors (10 mM) were made in DMF; dilutions were made in the same solvent. Cathepsin L from rat liver, (see Mason et al., Biochem. J. 226:233-241 (1985)) was approximately 1 nM in the assay. The assay buffer contained 50 mM phosphate at pH 6:2, 2.5 mM dithiothreitol (DTT), and 2.5 mM ethylenediaminetetraacetic acid (EDTA). The substrate for cathepsin L was 5 μM Z-Phe-Arg-AMC (carbobenzyloxyphenylalanylarginylaminomethylcoumarin). The assays were initiated at 25° C. by addition of enzyme to 2 mL of assay buffer containing the substrate and the various inhibitors (30-0.001 μM). The increase in fluorescence at 460 nm with excitation at 380 nm was followed with time. Inactivation of cathepsin L was indicated by a downward curve in the increase in fluorescence with time. In the absence of inhibitors, the enzymatic production of free AMC was linear throughout the time course of inactivation examined. Data points were collected over at least 3 half-times of inactivation. The inhibition progress curves were analyzed using non-linear curve fitting software to compute the kobs values. Approximate second-order inactivation constants (kobs /[I]) were calculated for all compounds. For selected inhibitors, plots of 1/[I] vs. 1/kobs yielded the true constants kirr, KI, and kirr/KI and were corrected for the presence of substrate by dividing KI (app.) by (1+[S]/Km).
Inhibition of cruzain, from T. cruzi, (see Eakin et at., J. Biol. Chem. 268(9): 6115-6118 (1993)) proceeded exactly as for cathepsin L, outlined above, using an enzyme concentration of 1 nM.

Test [2] addresses T2, Cathepsin L from rat liver (Rattus norvegicus, UniProt P07154).
T2 construct: Cathepsin L from rat liver; from tissue; host or cells: rat liver
Kind of test: Inhibition of cathepsin L, Z-Phe-Arg-AMC fluorescence progress curves. The note with it: for k/KI (kirr/KI): values without asterisk. How it is done:
as §1

A further test has as its target T3, Cloned cathepsin S (Homo sapiens, UniProt P25774).
T3 construct: made in house
Kind of test: Inhibition of cathepsin S, Z-Val-Val-Arg-AMC fluorescence progress curves. The settings on record: for k/KI (kirr/KI): values without asterisk. How it is done:
Stock solutions of the various inhibitors (10 mM) were made in DMF; dilutions were made in the same solvent. Cloned cathepsin S, (see Bromme et al., J. Biol. Chem. 268(&): 4832-4838 (1993)) was less than 1 nM in the assay. The assay buffer contained 100 mM phosphate at pH 6.5, 0.01% Triton, 2.5 mM dithiothreitol (DTT), and 2.5 mM ethylenediaminetetraacetic acid (EDTA). The substrate for cathepsin S was 10 μM Z-Val-Val-Arg-AMC (carbobenzyloxyvalinylvalinylarginylaminomethylcoumarin). The assays were initiated at 25° C. by addition of enzyme to 2 mL of assay buffer containing the substrate and the various inhibitors (30-0.001 μM). The increase in fluorescence at 460 nm with excitation at 380 nm was followed with time. Inactivation of cathepsin S was indicated by a downward curve in the increase in fluorescence with time. In the absence of inhibitors, the enzymatic production of free AMC was linear throughout the time course of inactivation examined. Data points were collected over at least 3 half-times of inactivation. The inhibition progress curves were analyzed using non-linear curve fitting software to compute the kobs values. Approximate second-order inactivation constants (kobs /[I]) were calculated for all compounds. For selected inhibitors, plots of 1/[I] vs. 1/kobs yielded the true constants kirr, KI, and kirr /KI, and were corrected for the presence of substrate by dividing KI (app.) by {1+[S]/Km}.

Setting [3] is: values marked *, 25° C., pH 6.2, read-out: kobs /[I]* (approximate second-order inactivation constant).
The mark [4] stands for this setting: values marked *, 25° C., pH 6.2.
Setting [5] is: values marked *, 25° C., pH 6.5.

T2 sequence (P07154 114-288 limits assumed): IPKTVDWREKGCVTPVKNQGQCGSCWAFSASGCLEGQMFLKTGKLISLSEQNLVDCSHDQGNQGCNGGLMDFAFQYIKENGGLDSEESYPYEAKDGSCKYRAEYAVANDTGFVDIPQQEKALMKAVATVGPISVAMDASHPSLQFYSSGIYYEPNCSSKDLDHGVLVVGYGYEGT
T2 sequence (P07154 291-334 limits assumed): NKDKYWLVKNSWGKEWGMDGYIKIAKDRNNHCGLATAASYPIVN
T3 sequence (P25774 115-331): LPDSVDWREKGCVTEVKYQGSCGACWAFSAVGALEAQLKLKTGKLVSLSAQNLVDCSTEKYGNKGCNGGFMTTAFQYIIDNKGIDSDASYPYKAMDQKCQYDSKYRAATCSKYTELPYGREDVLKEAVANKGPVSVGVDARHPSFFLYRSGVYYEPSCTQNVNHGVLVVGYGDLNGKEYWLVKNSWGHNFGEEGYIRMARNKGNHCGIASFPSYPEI
cruzain, from T. cruzi, sequence (P25779 123-337 limits assumed): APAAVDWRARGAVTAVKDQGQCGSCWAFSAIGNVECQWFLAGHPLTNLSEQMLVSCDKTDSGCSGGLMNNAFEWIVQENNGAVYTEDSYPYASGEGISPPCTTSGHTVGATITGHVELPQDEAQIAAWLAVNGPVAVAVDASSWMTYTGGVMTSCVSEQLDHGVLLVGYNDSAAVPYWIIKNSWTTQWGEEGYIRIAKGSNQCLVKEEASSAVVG

Take `C[C@H](NC(=O)OC(C)(C)C)C(=O)N[C@H](/C=C/S(C)(=O)=O)Cc1ccccc1` [Boc-Ala-PheVSMe, (S)-(E)-3-(tert-2butoxycarbonylalanyl)amino-1-methylsulfonyl-4-phenyl-1-butene]: the “kobs /[I]*” value with calpain was found to be 60 M⁻¹ s⁻¹.

Turning to `COC(=O)CCC(=O)N[C@@H](Cc1ccccc1)C(=O)N[C@H](/C=C/S(=O)(=O)c1ccccc1)CCc1ccccc1` [MeOSuc-Phe-HphVSPh, (S)-(E)-3-(carbomethoxypropionylphenylalanyl)amino-5-phenyl-1-phenylsulfonyl-1-pentene], the kinact/KI in test [1] (setting [3]) was determined as 870 M⁻¹ s⁻¹; on cruzain, from T. cruzi (pH 6.2, values marked *, read-out: kobs /[I]* (approximate second-order inactivation constant)), 34000 M⁻¹ s⁻¹; in test [2] (setting [3]) it was 47000 M⁻¹ s⁻¹; on Cloned cathepsin S (values marked *, 25° C., pH 6.5, read-out: kobs /[I]* (approximate second-order inactivation constant)) it was 740000 M⁻¹ s⁻¹.

For orientation: Ki means the equilibrium dissociation constant of an inhibitor or competing ligand from its target. Read a high Ki as a looser hold on the target. As to `O=C(N[C@H](/C=C/S(=O)(=O)c1ccc2ccccc2c1)CCc1ccccc1)C(Cc1ccc2ccccc2c1)NC(=O)N1CCOCC1` (stereo partly drawn) [Mu-Np-HphVSNp, (S)-(E)-3-(4-morpholinecarbonyl-2-naphthylalanyl)amino-1-(2-napthylsulfonyl)-5-phenyl-1-pentene], the “kobs /[I]* (approximate second-order inactivation constant)” value in test [1] (setting [4]) is 184,000 M^-1 sec^-1. In addition, the Ki on cruzain, from T. cruzi worked out at 25 nM; in test [2] (corrected for substrate) it was 18 nM; on Cloned cathepsin S (corrected for substrate), 1.8 nM. Moreover, the kirr on cruzain, from T. cruzi is 0.044 s⁻¹; in test [2], 0.14 s⁻¹; on Cloned cathepsin S, 0.10 s⁻¹. For the same compound, the “k/KI (kirr/KI)” value was 1,770,000 M^-1 sec^-1 on cruzain, from T. cruzi; 9,200,000 M^-1 sec^-1 in test [2] (25° C., pH 6.2); 56,000,000 M^-1 sec^-1 on Cloned cathepsin S (25° C., pH 6.5).

In the case of `O=C(N[C@H](/C=C/S(=O)(=O)c1ccc2ccccc2c1)CCc1ccccc1)[C@H](Cc1ccccc1)NC(=O)N1CCOCC1` [Mu-Phe-HphVSNp, (S)-(E)-3-(4-morpholinecarbonylphenylalanyl)amino-1-(2-napthylsulfonyl)-5-phenyl-1-pentene], the kirr in test [1] turned out to be 0.087 s⁻¹; at cruzain, from T. cruzi it was 0.08 s⁻¹. For the same compound, the Ki in test [1] (corrected for substrate) was determined as 1400 nM; on cruzain, from T. cruzi, 110 nM. The “k/KI (kirr/KI)” value in test [1] (25° C., pH 6.2) is reported as 63,700 M^-1 sec^-1; on cruzain, from T. cruzi it was 740,000 M^-1 sec^-1. Further, the “kobs /[I]* (approximate second-order inactivation constant)” value on Cloned cathepsin S (setting [5]) was > 5,400,000 M^-1 sec^-1.

Turning to `O=C(NCCCC[C@@H](/C=C/S(=O)(=O)c1ccccc1)NC(=O)[C@H](Cc1ccccc1)NC(=O)N1CCOCC1)c1ccccc1` [Mu-Phe-Lys(Bz)VSPh, (S)-(E)-3-(4-morpholinecarbonylphenylalanyl)amino-7-benzoylamino-1-phenylsulfonyl-1-heptene], the “kobs /[I]* (approximate second-order inactivation constant)” value at cruzain, from T. cruzi (values marked *) is 60,000 M^-1 sec^-1; in test [2] (setting [4]) it was 210,000 M^-1 sec^-1; at Cloned cathepsin S (setting [5]), 2,500,000 M^-1 sec^-1.

Take `CSCC[C@@H](/C=C/S(=O)(=O)c1ccccc1)NC(=O)[C@H](Cc1ccccc1)NC(=O)N1CCOCC1` [Mu-Phe-MetVSPh, (S)-(E)-3-(4-morpholinecarbonylphenylalanyl)amino-1-phenylsulfonyl-6-thia-1-heptene]: the “k/KI (kirr/KI)” value in test [1] (25° C., pH 6.2) was 7,000 M^-1 sec^-1; on cruzain, from T. cruzi, 111,000 M^-1 sec^-1; in test [2] (25° C., pH 6.2), 250,000 M^-1 sec^-1; at Cloned cathepsin S (25° C., pH 6.5) it was 4,000,000 M^-1 sec^-1.

Turning to `CCCC[C@@H](/C=C/S(=O)(=O)c1ccccc1)NC(=O)[C@H](Cc1ccccc1)NC(=O)N1CCOCC1` [Mu-Phe-NleVSPh, (S)-(E)-3-(4-morpholinecarbonylphenylalanyl)amino-1-phenylsulfonyl-1-heptene], the “k/KI (kirr/KI)” value in test [1] (25° C., pH 6.2) is 7,600 M^-1 sec^-1; at cruzain, from T. cruzi it was 77,000 M^-1 sec^-1; in test [2] (25° C., pH 6.2) it was 188,000 M^-1 sec^-1. Besides, the “kobs /[I]* (approximate second-order inactivation constant)” value on Cloned cathepsin S (setting [5]) was 2,300,000 M^-1 sec^-1.

For the compound `Cl.N[C@H](/C=C/S(=O)(=O)c1ccccc1)Cc1ccccc1` [Phe-VSPh, (S)-(E)-3-amino-4-phenyl-1-phenylsulfonyl-1-butene hydrochloride], the “kobs /[I]*” value in the test on calpain was less than 50 M⁻¹ s⁻¹.

Consider “(S)-(E)-3-(4-morpholinecarbonylleucylleucyl)amino-4-(4-hydroxyphenyl)-1-phenylsulfonyl-1-butene [Mu-Leu-Leu-TyrVSPh]”, for which the figures for the “kobs /[I]*” value in the test on calpain and with calpain (listed as Mu-Leu-Leu-Tyr-VSPh) were 10,800 M^-1 sec^-1 and 7,600 M^-1 sec^-1, respectively. Moreover, on Cloned cathepsin S (setting [5]), the “kobs /[I]* (approximate second-order inactivation constant)” value is listed as 25,100 M^-1 sec^-1.

For the compound “(S)-(E)-3-(4-morpholinecarbonylphenylalanyl)amino-5-methylsulfonyl-1-phenylsulfonyl-1-pentene [Mu-Phe-Met(O2)VSPh]”, in test [1] (setting [4]), the “kobs /[I]* (approximate second-order inactivation constant)” value was 1,600 M^-1 sec^-1. In addition, the “k/KI (kirr/KI)” value on cruzain, from T. cruzi is 160,000 M^-1 sec^-1; in test [2] (25° C., pH 6.2) it was 250,000 M^-1 sec^-1; on Cloned cathepsin S (25° C., pH 6.5) it was 2,800,000 M^-1 sec^-1.

In the case of “(S)-(E)-3-(4-morpholinecarbonylvalyl)amino-4-phenyl-1-phenylsulfonyl-1-butene [Mu-Val-PheVSPh]”, in the test with calpain, the “kobs /[I]*” value was found to be 110 M⁻¹ s⁻¹.
